Patent publication US11560365B2, “Non-fluorescent rhodamines” (THE UNIVERSITY OF TOKYO, priority 2018, dated 2023)

Columns and labels:
CYP3A = conditions: literature statement; cited from earlier work
CYP1A2 = biological target: T1, CYP1A2 (Homo sapiens, UniProt P05177); conditions: literature (Stresser et al. 2002); cited from earlier work
T1 sequence (P05177 1-516): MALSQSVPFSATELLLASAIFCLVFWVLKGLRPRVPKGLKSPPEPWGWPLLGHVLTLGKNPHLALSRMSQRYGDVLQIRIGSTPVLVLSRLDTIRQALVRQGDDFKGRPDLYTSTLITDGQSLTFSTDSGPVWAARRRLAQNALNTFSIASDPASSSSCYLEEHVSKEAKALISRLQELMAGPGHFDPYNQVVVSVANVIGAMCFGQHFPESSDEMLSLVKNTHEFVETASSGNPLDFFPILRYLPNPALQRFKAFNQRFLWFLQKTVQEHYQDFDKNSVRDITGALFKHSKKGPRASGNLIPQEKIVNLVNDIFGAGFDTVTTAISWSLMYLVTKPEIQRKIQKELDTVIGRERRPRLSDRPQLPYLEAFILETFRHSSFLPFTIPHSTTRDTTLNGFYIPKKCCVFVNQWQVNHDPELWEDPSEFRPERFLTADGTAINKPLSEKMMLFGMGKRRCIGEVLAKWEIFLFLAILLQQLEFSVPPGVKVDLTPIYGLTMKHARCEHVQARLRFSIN

[1] = Optical properties: relative fluorescence quantum yield with reference to Rhodamine B; assay type: physicochemical; conditions: for fluorescence quantum yield (Φfl): relative to Rhodamine B
Procedure: The optical properties of the compound synthesized in the above Synthesis Examples were evaluated. The results are illustrated in FIG. 4.
(§1) (a to c) of FIG. 4 illustrate chemical structures of tetramethylrhodamine (TMR) (a), 4-Cl TMR (b) and 4,5-diCl TMR (c), the fluorescence quantum yields (Φf1) in MeOH containing 0.1% TFA, absorption maximum (λabs) and emission maximum (λem). Φf1 is a relative fluorescence quantum yield determined with reference to Rhodamine B (Φf1=0.65) of EtOH.
(d to f) of FIG. 4 illustrates absorption spectra and emission spectra of 1 μM TMR (d), 4-Cl TMR (e) and 4,5-diCl TMR (f) in MeOH containing 0.1% TFA and 0.1% DMSO.
as §1, with “6” for “4”, “2-Cl TMR” for “tetramethylrhodamine (TMR)”, “2-Me” for “4-Cl”, “2-F” for “4,5-diCl”, “(Oni)” for “(Φf1)”
(d to f) of FIG. 6 illustrates the absorption spectra and the emission spectra of 1 μM 2-Cl TMR (a), 2-Me TMR (b) and 2-F TMR (c) in MeOH containing 0.1% TFA and 0.1% DMSO.
(a) of FIG. 7 illustrates Φf1, λabs and λem of 2-Cl triMe rhodamine in MeOH containing 0.1% TFA. (b) of FIG. 7 illustrates the absorption spectrum and the emission spectrum of 1 μM 2-Cl triMe rhodamine in MeOH containing 0.1% TFA.

CYP3A4 = CYP3A4 (Homo sapiens, UniProt P08684); test: Absorption/fluorescence spectrum changes on reaction with CYP3A4; assay type: biochemical; conditions: 1 μM compound, CYP3A4 10 nM
Excerpt: Next, as a representative of the compounds illustrated in FIG. 15, absorption/fluorescence spectrum changes when Compound 29 (illustrated below) was reacted with CYP3A4 were shown (FIG. 16).

[2] = test system: CYP3A in human liver microsomes; test: Time-dependent fluorescence change with human liver microsomes and NADPH producing system
Procedure: The human liver microsomes and the NADPH producing system were pre-incubated with 0.1% DMSO or 10 μM ketoconazole for 30 minutes before addition of Compound 29, and the measurement was started immediately after addition of Compound 29.

CYP3A activity of HepaRG = test: Fluorescence imaging of CYP3A activity in living HepaRG cells; assay type: cell-based; conditions: 1 μM compound, 37° C. 30 minutes; control and rifampicin groups versus ketoconazole group
Procedure: HepaRG (registered trademark) frozen vial 8M (HPR116-8M) purchased from KAC Co., Ltd. was thawed and inoculated according to the manufacturer's protocol, and cultured for 6 days in an 8-well chamber (Matsunami: SCC-038 collagen coat). Then, it was examined whether Compound 29 could detect the CYP3A activity of HepaRG.
Imaging was performed on three types of control group, inhibitor-added group, and derivative-added group.
Ketoconazole was used as an inhibitor. Rifampicin was used as an inducer of the CYP3A activity. […]
Here, FIG. 18 illustrates a fluorescence image (control) of HepaRG obtained when HepaRG to which 0.1% DMSO was added for 3 days was pretreated with 0.1% DMSO for 30 minutes, then 1 μM of Compound 29 was added, and the mixture was incubated at 37° C. for 30 minutes, a fluorescence image (+ inhibitor) of HepaRG obtained when 0.1% DMSO was added for 3 days and pretreated with 1 μM ketoconazole for 30 minutes before imaging, then Compound 29 was added, and the mixture was incubated at 37° C. for 30 minutes, and a fluorescence image obtained when 20 μM rifampicin were added for 3 days and was pretreated with 0.1% DMSO for 30 minutes, then Compound 29 was added, and the mixture was further incubated at 37° C. for 30 minutes. […]

[3] = in EtOH; cited from earlier work
[4] = Solvent viscosity dependence of the fluorescence quantum yield; assay type: physicochemical
Procedure: Next, in order to examine whether the non-fluorescence of the newly developed non-fluorescent rhodamine was due to the production of the TICT state, solvent viscosity dependence of the fluorescence quantum yield was examined. Specifically, the absorption, fluorescence spectrum and fluorescence quantum yield were measured in three types of solvents including MeOH (εr=32.6, η=0.61 cP), ethylene glycol (εr=38.7, η=19.9 cP) and glycerol (εr=42.5, η=1412 cP). […] It was expected that if the formation of the TICT state was promoted by the steric hindrance due to the introduction of the substituent, while quenching was performed by the formation of the TICT state in MeOH, in a highly viscous solvent such as glycerol, a rate of intramolecular twist became slow, and the transition to the TICT state was suppressed, so that the fluorescence quantum yield would increase.
(a) of FIG. 5 is Φf1 of 4-Cl TMR in glycerol, ethylene glycol and MeOH. Φf1 is a relative fluorescence quantum yield determined with reference to Rhodamine B (Φf1=0.65) of EtOH. (b and c) of FIG. 5 illustrate the absorption spectrum (b) and the emission spectrum (c) of 1 μM 4-Cl TMR in glycerol, ethylene glycol and MeOH.

Chain of CYP3A4 (P08684 whole entry): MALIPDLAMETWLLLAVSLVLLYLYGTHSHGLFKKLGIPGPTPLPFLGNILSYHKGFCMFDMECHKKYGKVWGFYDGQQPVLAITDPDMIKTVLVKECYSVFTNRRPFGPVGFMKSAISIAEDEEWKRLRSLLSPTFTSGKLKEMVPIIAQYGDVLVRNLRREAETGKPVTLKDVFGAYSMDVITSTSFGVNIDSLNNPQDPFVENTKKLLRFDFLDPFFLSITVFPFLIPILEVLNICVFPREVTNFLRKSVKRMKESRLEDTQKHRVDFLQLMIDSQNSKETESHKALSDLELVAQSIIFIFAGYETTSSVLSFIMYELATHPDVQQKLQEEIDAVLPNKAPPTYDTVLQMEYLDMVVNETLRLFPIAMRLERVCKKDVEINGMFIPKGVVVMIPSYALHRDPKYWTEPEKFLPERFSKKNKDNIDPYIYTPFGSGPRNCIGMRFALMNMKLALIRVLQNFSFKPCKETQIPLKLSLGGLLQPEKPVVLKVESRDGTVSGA

O=c1cc(C(F)(F)F)c2ccc(OCc3ccccc3)cc2o1 [BFC, 7-benzyloxy-4-trifluoromethylcoumarin]
metabolism by CYP3A (CYP3A): metabolized by CYP3A | metabolism by CYP1A2 (CYP1A2): metabolized to some extent by CYP1A2

CN(C)c1ccc2c(-c3ccccc3C(=O)O)c3cc(Cl)c(=[N+](C)C)cc-3oc2c1 [2-Cl TMR, 2-ClTMR]
fluorescence behaviour (in words) ([1]; MeOH containing 0.1% TFA): exhibited non-fluorescence

CCCCCOCC/[N+](C)=c1/cc2oc3cc(N(C)C)ccc3c(-c3ccccc3C(=O)O)c-2cc1C [Compound 29]
change of absorption on reaction with CYP3A4 (CYP3A4; pH 7.4): Shortening the absorption wavelength | change of fluorescence intensity on reaction with CYP3A4 (CYP3A4; pH 7.4, excitation 520 nm): significant increase in fluorescence intensity | fluorescence change on reaction with human liver microsomes ([2]; pH 7.4): showed the increase in fluorescence | detection of CYP3A activity in living cells by fluorescence (CYP3A activity of HepaRG): could detect the CYP3A activity even in living cells

CCN(CC)c1ccc2c(-c3ccccc3C(=O)O)c3ccc(=[N+](CC)CC)cc-3oc2c1.[Cl-] [Rhodamine B]
fluorescence quantum yield (Φfl) of the reference [3]: 0.65

c1ccc(COc2ccc3cccnc3c2)cc1 [BQ, 7-benzyloxyquinoline]
metabolism by CYP3A (CYP3A): metabolized by CYP3A | metabolism by CYP1A2 (CYP1A2): metabolized to some extent by CYP1A2

Cc1ccccc1C1=C2C=CC(=[N+](C)C)C(Cl)=C2[Si](C)(C)c2cc(N(C)C)ccc21 [4-Cl TMSiR]
fluorescence quantum yield ([1]; Si-rhodamines, Example 5): 1%

COc1cccc(OC)c1C1=C2C=CC(=[N+](C)C)C(Cl)=C2[Si](C)(C)c2c1ccc(N(C)C)c2Cl [4,5-diCl TMSiR]
fluorescence quantum yield ([1]; Si-rhodamines, Example 5): ≤ 0.1%

C/N=c1\cc2oc3cc(N(C)C)ccc3c(-c3ccccc3C(=O)O)c-2cc1Cl [2-Cl triMe rhodamine]
fluorescence quantum yield ([1]; MeOH containing 0.1% TFA): 15%

CN(C)c1ccc2c(-c3ccccc3C(=O)O)c3cc(F)c(=[N+](C)C)cc-3oc2c1 [2-F TMR, 2-FTMR]
fluorescence quantum yield ([1]; MeOH containing 0.1% TFA): about 10%

Cc1ccccc1-c1c2ccc(=[N+](C)C)c(Cl)c-2oc2cc(N(C)C)ccc12 [4-Cl TMR, 4-ClTMR]
fluorescence quantum yield (Φfl) ([1]; MeOH containing 0.1% TFA): 0.003 | fluorescence quantum yield (Φfl) ([4]; MeOH (η=0.61 cP)): 0.003 | fluorescence quantum yield (Φfl) ([4]; ethylene glycol (η=19.9 cP)): 0.01 | fluorescence quantum yield (Φfl) ([4]; glycerol (η=1412 cP)): 0.09

Cc1cc2c(-c3ccccc3C(=O)O)c3ccc(N(C)C)cc3oc-2cc1=[N+](C)C [2-Me TMR, 2-MeTMR]
fluorescence quantum yield ([1]; MeOH containing 0.1% TFA): about 1%

CC(=O)N1CCN(c2ccc(OCC3COC(Cn4ccnc4)(c4ccc(Cl)cc4Cl)O3)cc2)CC1 (stereo not shown) [ketoconazole, reference compound]
effect of inhibitor on the fluorescence increase of Compound 29 in human liver microsomes ([2]; 10 μM ketoconazole pre-incubated 30 minutes): suppressed

Cc1ccccc1-c1c2ccc(=[N+](C)C)c(Cl)c-2oc2c(Cl)c(N(C)C)ccc12 [4,5-diCl TMR, 4,5-diClTMR]
fluorescence quantum yield (Φfl) ([1]; MeOH containing 0.1% TFA): 0.001

Cc1ccccc1-c1c2ccc(=[N+](C)C)cc-2oc2cc(N(C)C)ccc12 [reference compound]
fluorescence quantum yield (Φfl) ([1]; MeOH containing 0.1% TFA): 0.399
